Experimental data from patent publication US20240262795A1, “PYRAZINE COMPOUNDS AS INHIBITORS OF FLT3” (Biomea Fusion, Inc., priority 2021, published 2024).

Experiments:
FLT3-ITD = biological target: T1, FLT3-ITD (Homo sapiens, UniProt P36888, DUP595-601); assay: FLT3-ITD Lance Ultra TR-FRET kinase assay; format: biochemical
T1 construct: purchased Signalchem F-12-12CG-10
T1 sequence (P36888 with tags, fused parts or gaps DUP595-601 limits assumed): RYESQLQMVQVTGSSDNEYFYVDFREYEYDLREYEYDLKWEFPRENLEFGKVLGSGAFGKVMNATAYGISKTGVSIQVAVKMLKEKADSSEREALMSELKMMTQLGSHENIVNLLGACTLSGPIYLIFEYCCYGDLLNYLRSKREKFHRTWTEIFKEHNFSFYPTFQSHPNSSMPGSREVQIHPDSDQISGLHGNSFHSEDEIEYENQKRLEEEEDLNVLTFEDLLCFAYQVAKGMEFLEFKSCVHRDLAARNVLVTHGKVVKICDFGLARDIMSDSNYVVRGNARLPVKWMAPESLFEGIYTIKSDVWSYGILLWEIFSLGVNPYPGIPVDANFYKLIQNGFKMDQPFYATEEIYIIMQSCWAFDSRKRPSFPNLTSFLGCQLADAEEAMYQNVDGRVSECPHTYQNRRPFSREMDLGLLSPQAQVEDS
Text: (§1) High throughput 384-well Lance Ultra TR-FRET based kinase assays were established for the WT FLT3 and FLT3-ITD enzymes and employed a ULight-labeled peptide […] and FLT3 proteins labelled with Eu-conjugated antibody […] (WuXi Aptec). The principle of TR-FRET is based on transfer of energy between a donor and acceptor fluorophore that results when the fluorophores are within close proximity (˜100 Å) of each other. Recombinant WT FLT3 (#PR4666C, M.W. 48.6 kDa) was purchased from Invitrogen and FLT3-ITD (FLT3-ITD-W51, #F-12-12CG-10, M.W. 76 kDa) was purchased from Signalchem. Optimal assay conditions for the WT FLT3 enzyme assay were as follows: 0.5 nM FLT3 protein, 50 nM ULight-JAK-1 (Tyr1023) substrate peptide (PerkinElmer #TRF0121), 100 μM ATP, 60 min reaction time. Optimal assay conditions for the FLT3-ITD enzyme assay were as follows: 0.0625 nM FLT3-ITD protein, 50 nM ULight-JAK-1 (Tyr1023) substrate peptide, 50 μM ATP, 90 min reaction time. Briefly, 11 dose 3× serial dilutions were prepared for the test compounds and the reference compound and 100 nanoliters transferred to appropriate wells of 384-well assay plates. Five microliters of 2× enzyme/peptide were added into assay wells, assay plates centrifuged at 1000 rpm for about 30 seconds, sealed with sealing film and incubated for 30 min at 23° C. Assay buffer comprised 50 mM HEPES (pH 7.5), 1 mM EDTA, 0.01% Brij-35, 10 mM MgCl2 and 2 mM DTT. Next 5 μl of a 2× ATP mixture were added into the assay wells and the plates centrifuged at 1000 rpm about 30 seconds, sealed with sealing film and incubated for 23° C. for appropriate duration. Following assay incubation (30 min for WT FLT3 and 60 min for FLT3-ITD) 10 μl 2× Detection Mixture (Eu-W1024 Anti-phosphotyrosine (PT66) 2 nM and EDTA 10 mM) was added to assay wells, assay plates centrifuge at 1000 rpm about 1 minutes, sealed with sealing film and incubated at 23° C. for 60 minutes. Assay plates were read on a Perkin Elmer Envision reader at two wavelengths (665/615) and the ratio of […] calculated.
(§2) Data was expressed as % of inhibition relative to the vehicle control and calculated as follows:
(§3) Results were analyzed by XLFIT5 as % inhibition vs. log [compound concentration] and IC50 values were calculated by non-linear regression using four parameter-logistic equation. Fit=(A+((B−A)/(1+((C/x)^D)))). Res=(y−fit).

K-562 = assay: Proliferation inhibition, CellTiter-Glo, K-562; format: cell-based, human; conditions: Homo sapiens, K562, 96 h; K-562 cells, IC50 (4 days), CellTiter-Glo; read-out: K-562 IC50
In short: (§4)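 About 10,000 cells per well in RPMI-1640 with 10% FBS. Compounds added 2 h after seeding at eight concentrations in duplicate (0.2% DMSO as 100% proliferation), then incubated ~96 h at 37° C, 5% CO2. ATP measured by CellTiter-Glo luminescence; IC50 from four-parameter logistic fit.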

MV-4-11 = assay: Proliferation inhibition, CellTiter-Glo, MV-4-11; format: cell-based, human; conditions: Homo sapiens, MV4-11, 96 h; MV-4:11 cells, IC50 (4 days), CellTiter-Glo; read-out: MV-4:11 IC50
In short: as §4

MOLM-13 = assay: Proliferation inhibition, CellTiter-Glo, MOLM-13; format: cell-based, human; conditions: Homo sapiens, 96 h; MOLM-13 cells, IC50 (4 days), CellTiter-Glo; read-out: MOLM-13 IC50
In short: as §4

WT FLT3 = biological target: T2, WT FLT3 (Homo sapiens, UniProt P36888); assay: WT FLT3 Lance Ultra TR-FRET kinase assay; format: biochemical
T2 construct: purchased Invitrogen PR4666C
T2 sequence (P36888 564-993 limits assumed): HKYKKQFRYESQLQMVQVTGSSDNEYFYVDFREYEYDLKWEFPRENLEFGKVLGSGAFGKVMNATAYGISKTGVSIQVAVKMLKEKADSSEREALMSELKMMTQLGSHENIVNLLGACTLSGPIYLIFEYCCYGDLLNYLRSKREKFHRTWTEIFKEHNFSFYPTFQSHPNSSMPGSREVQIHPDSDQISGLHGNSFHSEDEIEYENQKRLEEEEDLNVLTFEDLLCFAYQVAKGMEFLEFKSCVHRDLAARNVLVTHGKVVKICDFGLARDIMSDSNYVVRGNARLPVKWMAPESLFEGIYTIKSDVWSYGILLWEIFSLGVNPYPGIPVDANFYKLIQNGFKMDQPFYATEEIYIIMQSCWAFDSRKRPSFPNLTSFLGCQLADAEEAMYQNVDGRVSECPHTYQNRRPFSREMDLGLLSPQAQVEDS
Text: as §1, §2, §3

SMILES | IC50 (FLT3-ITD) [nM] | IC50 (K-562) [nM] | IC50 (MV-4-11) [nM] | IC50 (MOLM-13) [nM] | IC50 (WT FLT3) [nM]
C#Cc1nc(C(N)=O)c(Nc2cccc(CCNC(=O)CN(C)C(=O)/C=C/CN(C)C)c2)nc1N(C)C(C)C [Compound 327, (E)-3-((3-(2-(2-(4-(dimethylamino)-N-methylbut-2-enamido)acetamido)ethyl)phenyl)amino)-6-ethynyl-5-(isopropyl (methyl)amino) pyrazine-2-carboxamide] | 0.201 to 0.5 | > 500 | 10 to 100 | 1 to 10 | 0.501 to 1
C=Cc1nc(C(N)=O)c(Nc2cccc(CCNC(=O)CN(C)C(=O)/C=C/CN(C)C)c2)nc1N(C)C(C)C [Compound 328, (E)-3-((3-(2-(2-(4-(dimethylamino)-N-methylbut-2-enamido)acetamido)ethyl)phenyl)amino)-5-(isopropyl(methyl)amino)-6-vinylpyrazine-2-carboxamide] | 0.201 to 0.5 | > 500 | < 1 | 10 to 100 | 0.201 to 0.5
CCc1nc(C(N)=O)c(Nc2cccc(CCNC(=O)[C@H](C)NC(=O)/C=C/CN(C)C)c2)nc1NC(C)C [Compound 501, (S, E)-3-((3-(2-(2-(4-(dimethylamino)but-2-enamido)propanamido)ethyl)phenyl)amino)-6-ethyl-5-(isopropylamino) pyrazine-2-carboxamide] | 0.501 to 1 | > 500 | < 1 | < 1 | 0.501 to 1
CCc1nc(C(N)=O)c(Nc2cccc(CCNC(=O)[C@H](C)NC(=O)/C=C/CN(C)C)c2)nc1N(C)C(C)C [Compound 502, (S,E)-3-((3-(2-(2-(4-(dimethylamino)but-2-enamido)propanamido)ethyl)phenyl)amino)-6-ethyl-5-(isopropyl(methyl)amino) pyrazine-2-carboxamide] | 0.201 to 0.5 | > 500 | < 1 | < 1 | 0.101 to 0.2
CCc1nc(Nc2cccc([C@@H](C)CNC(=O)CN(C)C(=O)/C=C/CN(C)C)c2)c(C(N)=O)nc1CC [Compound 503, (R, E)-3-((3-(1-(2-(4-(dimethylamino)-N-methylbut-2-enamido)acetamido)propan-2-yl)phenyl)amino)-5,6-diethylpyrazine-2-carboxamide] | 0.501 to 1 | > 500 | < 1 | < 1 | 0.201 to 0.5
CCc1nc(C(N)=O)c(Nc2cccc([C@@H](C)CNC(=O)CN(C)C(=O)/C=C/CN3CCC3)c2)nc1C(C)C [Compound 509, (R,E)-3-((3-(1-(2-(4-(azetidin-1-yl)-N-methylbut-2-enamido)acetamido)propan-2-yl)phenyl)amino)-6-ethyl-5-isopropylpyrazine-2-carboxamide] | 0.501 to 1 | > 500 | 1 to 10 | < 1 | 0.201 to 0.5

The next lines start with the values.

IC50 (FLT3-ITD) [nM] | IC50 (K-562) [nM] | IC50 (MV-4-11) [nM] | IC50 (MOLM-13) [nM] | IC50 (WT FLT3) [nM] | SMILES
> 1 | > 500 | 10 to 100 | 10 to 100 | > 1 | C=CC(=O)N(C)CC(=O)NCCc1cccc(Nc2nc(CC(C)C)c(CC)nc2C(N)=O)c1 [Compound 510, 6-ethyl-5-isobutyl-3-((3-(2-(2-(N-methylacrylamido)acetamido)ethyl)phenyl)amino) pyrazine-2-carboxamide]
≤ 0.1 | > 500 | 1 to 10 | < 1 | 0.201 to 0.5 | C=CC(=O)N(C)CC(=O)NCCc1cccc(Nc2nc(N(C)CC)c(CC)nc2C(N)=O)c1 [Compound 511, 6-ethyl-5-(ethyl(methyl)amino)-3-((3-(2-(2-(N-methylacrylamido)acetamido)ethyl)phenyl)amino) pyrazine-2-carboxamide]
0.201 to 0.5 | > 500 | 10 to 100 | 1 to 10 | 0.501 to 1 | C=CC(=O)N(C)CC(=O)NC[C@H](C)c1cccc(Nc2nc(N(C)CC)c(CC)nc2C(N)=O)c1 [Compound 513, (R)-6-ethyl-5-(ethyl (methyl)amino)-3-((3-(1-(2-(N-methylacrylamido)acetamido)propan-2-yl)phenyl)amino) pyrazine-2-carboxamide]
0.101 to 0.2 | > 500 | < 1 | 1 to 10 | 0.501 to 1 | C=CC(=O)N(C)CC(=O)NCCc1cc(Nc2nc(N(C)CC)c(CC)nc2C(N)=O)ccn1 [Compound 515, 6-ethyl-5-(ethyl(methyl)amino)-3-((2-(2-(2-(N-methylacrylamido)acetamido)ethyl)pyridin-4-yl)amino) pyrazine-2-carboxamide]
0.501 to 1 | > 500 | 1 to 10 | 1 to 10 | 0.501 to 1 | CCc1nc(C(N)=O)c(Nc2cccc([C@@H](C)CNC(=O)CN(C)C(=O)/C=C/CN3CCC3)c2)nc1CC(C)C [Compound 517, (R, E)-3-((3-(1-(2-(4-(azetidin-1-yl)-N-methylbut-2-enamido)acetamido)propan-2-yl)phenyl)amino)-6-ethyl-5-isobutylpyrazine-2-carboxamide]
> 1 | > 500 | 1 to 10 | 10 to 100 | > 1 | CCc1nc(Nc2cccc([C@H](C)CNC(=O)CN(C)C(=O)/C=C/CN3CCC3)c2)c(C(N)=O)nc1CC [Compound 519, (S,E)-3-((3-(1-(2-(4-(azetidin-1-yl)-N-methylbut-2-enamido)acetamido)propan-2-yl)phenyl)amino)-5,6-diethylpyrazine-2-carboxamide]
0.501 to 1 | > 500 | 1 to 10 | 1 to 10 | > 1 | CCc1nc(C(N)=O)c(Nc2ccnc(CCNC(=O)CN(C)C(=O)/C=C/CN3CCC3)c2)nc1C1CC1 [Compound 520, (E)-3-((2-(2-(2-(4-(azetidin-1-yl)-N-methylbut-2-enamido)acetamido)ethyl)pyridin-4-yl)amino)-5-cyclopropyl-6-ethylpyrazine-2-carboxamide]
0.501 to 1 | > 500 | < 1 | 1 to 10 | > 1 | CCc1nc(C(N)=O)c(Nc2cccc(CCNC(=O)CN(C)C(=O)/C=C/CN3CCC3)c2)nc1CC(C)C [Compound 601, (E)-3-((3-(2-(2-(4-(azetidin-1-yl)-N-methylbut-2-enamido)acetamido)ethyl)phenyl)amino)-6-ethyl-5-isobutylpyrazine-2-carboxamide]
